Results on two compounds are retold here after patent US8043823B2, “Methods of identifying agonists and antagonists of hTASR bitter taste receptors” (Deutsches Institut fuer Ernaehrungsforschung, priority 2007, dated 2011).

A word on the EC50: it is the concentration that produces a half-maximal response.

Some results are limits rather than exact numbers.

Holding throughout (type): cell-based
The target in one assay is T1, TAS2R47 (Homo sapiens, UniProt P59541).
T1 construct: expressed in transfected cells; host or cells: HEK-293T cells stably expressing Gα16gust44
T1 sequence (P59541 1-319): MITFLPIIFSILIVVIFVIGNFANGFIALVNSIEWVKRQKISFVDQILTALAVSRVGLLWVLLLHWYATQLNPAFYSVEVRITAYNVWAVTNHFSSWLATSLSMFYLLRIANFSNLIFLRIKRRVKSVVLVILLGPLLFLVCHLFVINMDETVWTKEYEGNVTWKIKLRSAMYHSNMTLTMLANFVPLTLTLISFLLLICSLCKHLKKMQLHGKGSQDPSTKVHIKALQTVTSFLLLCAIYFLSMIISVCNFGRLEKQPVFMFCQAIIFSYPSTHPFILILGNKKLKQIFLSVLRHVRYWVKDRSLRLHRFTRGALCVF
The assay is described as follows: FLIPR calcium imaging of HEK-293T Gα16gust44 cells transiently expressing TAS2R47. The source says:
(§1) Functional expression. Human TAS2R cDNA constructs were used that encoded a plasma membrane-targeting sequence of the rat somatostatin type 3 receptor at the N-terminus of the recombinant polypeptide and a herpes simplex virus glycoprotein D (HSV) epitope at its C-terminus (Bufe et al., 2002). The constructs were transiently transfected into HEK-293T cells that stably express the chimeric G-protein subunit Gα16gust44 using Lipofectamine 2000 (Invitrogen, San Diego, Calif.) in 96-well microtiter plates. Calcium imaging experiments using an automated fluorometric imaging plate reader (FLIPR) (Molecular Devices, Munich, Germany) have been performed 24-32 h later essentially as described previously (Bufe et al., 2002). Tastants (Sigma-Aldrich, Taufkirchen, Germany) were dissolved and administered in the following (in mM): 130 NaCl, 5 KCl, 10 HEPES, 2 CaCl2, and 10 mM glucose, pH7.4. Data were collected from 1-2 independent experiments performed at least in triplicate and processed with SigmaPlot (SPSS, Chicago, Ill.). For dose-response curve calculation, the peak fluorescence responses after compound addition were corrected for and normalized to background fluorescence (ΔF/F=(F−F0)/F0), and baseline noise was subtracted. […]

A further assay addresses T2, TAS2R50 (Homo sapiens, UniProt P59544, C203Y).
T2 construct: expressed in transfected cells; host or cells: HEK-293T cells stably expressing Gα16gust44
T2 sequence (P59544 1-299 C203Y): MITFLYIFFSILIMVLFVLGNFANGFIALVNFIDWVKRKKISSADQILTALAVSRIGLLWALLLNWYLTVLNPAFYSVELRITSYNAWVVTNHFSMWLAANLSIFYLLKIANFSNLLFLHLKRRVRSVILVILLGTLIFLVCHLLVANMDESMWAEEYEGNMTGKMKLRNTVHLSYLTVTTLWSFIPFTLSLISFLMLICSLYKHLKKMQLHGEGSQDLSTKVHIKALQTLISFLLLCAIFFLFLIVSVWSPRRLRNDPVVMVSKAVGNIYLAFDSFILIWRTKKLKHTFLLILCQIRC
Nature of the assay: FLIPR calcium imaging of HEK-293T Gα16gust44 cells transiently expressing TAS2R50.
Description: as §1

The target of a further assay is T3, TAS2R46 (Homo sapiens, UniProt P59540).
T3 construct: expressed in transfected cells; host or cells: HEK-293T cells stably expressing Gα16gust44
T3 sequence (P59540 with tags, fused parts or gaps): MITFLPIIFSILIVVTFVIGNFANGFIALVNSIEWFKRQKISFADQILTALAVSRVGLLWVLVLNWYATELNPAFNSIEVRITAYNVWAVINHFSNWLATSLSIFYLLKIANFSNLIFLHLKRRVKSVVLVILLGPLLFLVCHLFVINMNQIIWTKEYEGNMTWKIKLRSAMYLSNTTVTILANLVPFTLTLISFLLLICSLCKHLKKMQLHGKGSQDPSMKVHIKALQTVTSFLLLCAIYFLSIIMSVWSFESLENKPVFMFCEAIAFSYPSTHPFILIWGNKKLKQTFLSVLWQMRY
The assay is described as follows: FLIPR calcium imaging of HEK-293T Gα16gust44 cells transiently expressing TAS2R46. Conditions: intracellular calcium response.
Description: as §1
In general terms: Calcium assays in cells follow changes in intracellular calcium, usually with a dye or a luminescent sensor.

As for `CC12CCC(CC1=O)C2(C)C` (centres unmarked) [Camphor, camphor], the “molar range at which TAS2R47 responded” value at TAS2R47 (Table 1, assay similar to Example 1) stood at 0.3 mM.
Consider `C=C1CC[C@@H]2[C@](C)(CO)[C@H](O)CC[C@@]2(C)[C@@H]1C/C=C1/C(=O)OC[C@H]1O` [andrographolide], for which the “concentration at which TAS2R47-expressing HEK293 cells responded” value at TAS2R47 (intracellular calcium response, 30 μM or higher) was not below 30 µM. Besides, the EC50 on TAS2R50 (dose-response curve on TAS2R50, FIG. 2, one experiment in triplicate) came to 5.6 µM. For the same compound, the “response of TAS2R50 in FLIPR calcium imaging” value on TAS2R50 (result in words) is “low micromolar range”. Further, the “concentration to which TAS2R46-expressing cells already responded” value at TAS2R46 worked out at 3 µM.
